Like-named read-outs stand apart in the source and are kept apart here.
How the values were obtained:
[1] = system: D1-like dopamine receptors in l-LNv; details: via one or more D1-like dopamine receptors, ref Shang et al. 2011, Duvall and Taghert, 2012; cited from earlier work
[2] = system: D1-like dopamine receptors in l-LNv; assay: EPAC-FRET cAMP imaging of l-LNv response to dopamine; format: cell-based, Drosophila
[3] = system: Drosophila D1-like receptors expressed in hEK-293 cells; details: hEK-293 cells expressing Drosophila D1-like receptor
[4] = system: dopamine receptor(s) (DA-R) in s-LNv; details: 2012, cited from earlier work
[5] = system: dopamine receptor(s) (DA-R) in s-LNv; details: for Max Ampl DA ZT4 / Max Ampl DA ZT22 / EC50: Pdf > Epac50A

## NCCc1ccc(O)c(O)c1 [DA, dopamine]
[1]
  cAMP increase in vivo: generates cAMP increases in vivo
[2]; 3 × 10^−05 M DA, N=33 brains, 178 ROIs, P=0.574
  FRET responses to DA over the 24-hr period: did not significantly vary over the 24-hr time period tested
[2]; Pdf > Epac50A, LD 12:12, ZT4
  Max Ampl DA ZT4: 15.3 ± 1.3
[2]; Pdf > Epac50A, LD 12:12, ZT22
  Max Ampl DA ZT22: 16.0 ± 1.3
[3]
  β-ARR2-GFP translocation: potently recruited β-ARR2-GFP translocation
[4]; s-LNv, ref Duvall and Taghert
  DA responsiveness on over-expression of AC3: no effect on DA responsiveness
[4]; small LNv, ref Shang et al. 2011, Duvall and Taghert
  cAMP increase in vivo: generates cAMP increases in vivo
[5]; 3 × 10^−05 M DA, s-LNv, N=36 brains, 124 ROIs
  rhythm of responsiveness to DA: peak phase in synchrony with the peak phase of PDF responsiveness, just after lights-on
[5]; s-LNv, LD 12:12, ZT4
  Max Ampl DA ZT4: 15.3 ± 1.2
[5]; s-LNv, LD 12:12, ZT22
  Max Ampl DA ZT22: 14.7 ± 2.8
[5]; rala[CA], s-LNv, LD 12:12, ZT4
  Max Ampl DA ZT4: 14.0 ± 1.4
[5]; rala[CA], s-LNv, LD 12:12, ZT22
  Max Ampl DA ZT22: 13.6 ± 2.0
[5]; rala[DN], s-LNv, LD 12:12, ZT4
  Max Ampl DA ZT4: 13.6 ± 1.5
[5]; rala[DN], s-LNv, LD 12:12, ZT22
  Max Ampl DA ZT22: 14.4 ± 1.9
[5]; read-out: DA EC50 ZT4, rala[CA], s-LNv, LD 12:12, ZT4
  EC50: 5.7 µM
[5]; read-out: DA EC50 ZT4, rala[DN], s-LNv, LD 12:12, ZT4
  EC50: 29 µM
[5]; read-out: DA EC50 ZT22, rala[CA], s-LNv, LD 12:12, ZT22
  EC50: 6.4 µM
[5]; s-LNv, Suppl. Figure 2-top
  DA responsiveness after RNAi targeting of AC13E and of ACX-A: partially reduced DA responsiveness
[5]; sustained exposure to DA
  attenuation of FRET response after peak: rapidly attenuated
[5]; sustained exposure to DA, relation: within
  time to peak of FRET response: 1 to 2 min
